Series [1] relates to PMN. The experiment in a line: Immunomodulatory activity in Homo sapiens (human) PMN cells assessed as increase in reactive oxygen species formation at 0.001 to 0.0075 ug/ml at 40 min after luminal addition by chemiluminescence assay. It counts as functional, cell-based.
For series [2], the system named is PMN. The experiment in a line: Immunomodulatory activity in Homo sapiens (human) PMN cells assessed as increase in NO release at 0.001 to 0.0075 ug/ml after 1 hr by ELISA plate reader analysis. It counts as functional, cell-based.
Series [3] deals with PMN. Nature of the series: Immunomodulatory activity in Homo sapiens (human) PMN cells assessed as increase in phagocytic index using Candida albicans as an infectious organism after 1 hr by Giemsa staining based microscopic analysis. The class given is functional, cell-based.
The subject of series [4] is PMN. Nature of the series: Immunomodulatory activity in Homo sapiens (human) PMN cells assessed as increase in reactive oxygen species formation at 0 min after luminal addition by chemiluminescence assay. The class given is functional, cell-based.
The subject of series [5] is PMN. Nature of the series: Immunomodulatory activity in Homo sapiens (human) PMN cells assessed as increase in superoxide species generation at 0.001 to 0.0075 ug/ml after 2 hr by NBT assay. The class given is functional, cell-based.
A short description of series [6]: Immunomodulatory activity in Homo sapiens (human) PMN cells assessed as induction of phagocytosis using Candida albicans as an infectious organism at 0.0075 ug/ml after 1 hr by Giemsa staining based microscopic analysis (reference value: 27.33 +/-2.52%). It counts as functional.
A short description of series [7]: Immunomodulatory activity in Homo sapiens (human) PMN cells assessed as induction of phagocytosis using Candida albicans as an infectious organism at 0.005 ug/ml after 1 hr by Giemsa staining based microscopic analysis (reference value: 27.33 +/-2.52%). The class given is functional.
A short description of series [8]: Immunomodulatory activity in Homo sapiens (human) PMN cells assessed as induction of phagocytosis using Candida albicans as an infectious organism at 0.001 ug/ml after 1 hr by Giemsa staining based microscopic analysis (reference value: 27.33 +/-2.52%). The class given is functional.
Series [9] in a line: Immunomodulatory activity in Homo sapiens (human) PMN cells assessed as induction of phagocytosis using Candida albicans as an infectious organism at 1 uM after 1 hr by Giemsa staining based microscopic analysis (reference value: 27.33 +/-2.52%). It counts as functional.
The nature of series [10]: Cytotoxicity against Homo sapiens (human) PMN cells assessed as cell viability at 1 ug/ml by trypan blue dye exclusion test (reference value: 83.94 +/-5.05%). It counts as cell-based. As to conditions: read-out: Activity.
Series [11] in a line: Cytotoxicity against Homo sapiens (human) PMN cells assessed as cell viability at 0.5 ug/ml by trypan blue dye exclusion test (reference value: 83.94 +/-5.05%). The class given is cell-based. As to conditions: read-out: Activity.
Series [12] is described as follows: Cytotoxicity against Homo sapiens (human) PMN cells assessed as cell viability at 0.1 ug/ml by trypan blue dye exclusion test (reference value: 83.94 +/-5.05%). The class given is cell-based. As to conditions: read-out: Activity.
Series [13] can be described thus: Cytotoxicity against Homo sapiens (human) PMN cells assessed as cell viability at 0.01 ug/ml by trypan blue dye exclusion test (reference value: 83.94 +/-5.05%). As to conditions: read-out: Activity. The class given is cell-based.
Series [14] is described as follows: Cytotoxicity against Homo sapiens (human) PMN cells assessed as cell viability at 0.0075 ug/ml by trypan blue dye exclusion test (reference value: 83.94 +/-5.05%). The class given is cell-based. As to conditions: read-out: Activity.
Series [15] is described as follows: Cytotoxicity against Homo sapiens (human) PMN cells assessed as cell viability at 0.005 ug/ml by trypan blue dye exclusion test (reference value: 83.94 +/-5.05%). To be noted: read-out: Activity. It counts as cell-based.
Series [16] in a line: Cytotoxicity against Homo sapiens (human) PMN cells assessed as cell viability at 0.001 ug/ml by trypan blue dye exclusion test (reference value: 83.94 +/-5.05%). As to conditions: read-out: Activity. The class given is cell-based.
In series [17] the test system is PMN. Nature of the series: Immunomodulatory activity in Homo sapiens (human) PMN cells assessed as increase in reactive oxygen species formation at 0.001 ug/ml at 40 min after luminal addition by chemiluminescence assay. It counts as functional, cell-based.
Series [18] relates to PMN. Nature of the series: Immunomodulatory activity in Homo sapiens (human) PMN cells assessed as increase in reactive oxygen species formation at 0.001 ug/ml at 0 min after luminal addition by chemiluminescence assay. The class given is functional, cell-based.
The subject of series [19] is PMN. The experiment in a line: Immunomodulatory activity in Homo sapiens (human) PMN cells assessed as increase in phagocytic index using Candida albicans as an infectious organism at 0.005 ug/ml after 1 hr by Giemsa staining based microscopic analysis. It counts as functional, cell-based.
Series [20] has as its system PMN. The experiment in a line: Immunomodulatory activity in Homo sapiens (human) PMN cells assessed as increase in reactive oxygen species formation at 1 uM at 40 min after luminal addition by chemiluminescence assay. It counts as functional, cell-based.
The subject of series [21] is PMN. Nature of the series: Immunomodulatory activity in Homo sapiens (human) PMN cells assessed as increase in reactive oxygen species formation at 1 uM at 0 min after luminal addition by chemiluminescence assay. The class given is functional, cell-based.
In series [22] the test system is PMN. The experiment in a line: Immunomodulatory activity in Homo sapiens (human) PMN cells assessed as increase in superoxide species generation at 1 uM after 2 hr by NBT assay. The class given is functional, cell-based.
The test system of series [23] is PMN. Nature of the series: Immunomodulatory activity in Homo sapiens (human) PMN cells assessed as increase in NO release at 1 uM after 1 hr by ELISA plate reader analysis. It counts as functional, cell-based.

The results in this text go back to ChEMBL document CHEMBL3044851, “Immunomodulatory active steroidal saponins from Asparagus racemosus” (Med Chem Res, 2013).

Molecules are shown by their SMILES. Calls of active or inactive are those of the source. No cut-off for these calls is given here.

For `C[C@H]1CC[C@@]2(OC1)O[C@H]1C[C@H]3[C@@H]4CC[C@@H]5C[C@@H](O[C@@H]6O[C@H](CO[C@@H]7O[C@@H](C)[C@H](O)[C@@H](O)[C@H]7O)[C@@H](O)[C@H](O)[C@H]6O[C@@H]6OC[C@H](O)[C@H](O)[C@H]6O)CC[C@]5(C)[C@H]4CC[C@]3(C)[C@H]1[C@@H]2C` [SHATAVAROSIDE A], the outcome with PMN [1], in the series with PMN [2] and with PMN [5] was Active. Moreover, the Activity entry was “Dose-dependent effect” in the series on PMN [3]; “Dose-dependent effect” with PMN [4]; 23.5% in series [6]; 29.33% in series [7]; 32% in [8]; 35% in [9]. Besides, in series [10], the viability at 1 ug/ml was 76.2%. Also, the viability at 0.5 ug/ml in series [11] is 71.2%. In addition, the viability at 0.1 ug/ml in [12] turned out to be 71.7%. For the same molecule, in series [13], the viability at 0.01 ug/ml came out at 72.3%. In addition, the viability at 0.0075 ug/ml in series [14] came out at 100%. In addition, the viability at 0.005 ug/ml in [15] was found to be 100%. In series [16], the viability at 0.001 ug/ml came out at 100%.
In the case of `C[C@H]1CC[C@@]2(OC1)O[C@H]1C[C@H]3[C@@H]4CC[C@@H]5C[C@@H](O[C@@H]6O[C@H](CO[C@@H]7O[C@@H](C)[C@H](O)[C@@H](O)[C@H]7O)[C@@H](O[C@@H]7OC[C@@H](O)[C@H](O)[C@H]7O)[C@H](O)[C@H]6O[C@@H]6O[C@H](CO)[C@@H](O)[C@H](O)[C@H]6O)CC[C@]5(C)[C@H]4CC[C@]3(C)[C@H]1[C@@H]2C` [SHATAVAROSIDE B], the outcome in the series on PMN [17], with PMN [18], with PMN [2], with PMN [5] and in the series with PMN [19] was Active. Further, the Activity in [6] came to 26.33%; in series [7], 28.17%; in series [8] it was 36.83%; in [9], 35%. Moreover, in [14], the viability at 0.0075 ug/ml stood at 91%. Moreover, the viability at 0.005 ug/ml in series [15] was 92.8%. The viability at 0.001 ug/ml in series [16] is 94.2%.
As to `CCCCCCCCCCCCCC(=O)O[C@@H]1[C@@H](C)[C@@]2(O)[C@@H](C=C(CO)C[C@]3(O)C(=O)C(C)=C[C@@H]23)[C@@H]2C(C)(C)[C@]12OC(C)=O`, the result in the series with PMN [20], in the series on PMN [21], in the series with PMN [22] and in the series with PMN [23] was Active.
